Measurements as given in EP0551434B1 (BOARD OF REGENTS THE UNIVERSITY OF TEXAS SYSTEM, priority 1990, dated 1992).
Where two headings read alike, the source gives them in different places. Each block holds one compound with its values, some of them ahead of it.

Tests used:
[1] = tested on: MCF7; test: Inhibition of MCF7 breast tumor cell growth in vitro (72 hour exposure, MTT tetrazolium dye assay); assay type: cell-based, human
Method: The MCF7 cell line is a human tumor cell line. This cell line was cultured in MEM( (Eagles) media in a 5% C0^2 atmosphere with 10% fetal calf serum that had been washed twice with dextran coated charcoal to reduce endogenous estrogen levels. The media was supplemented with 1 mM sodium pyruvate and 100 µm non-essential amino acids. The cell line was screened routinely for myoplasma contamination using the GenProbe kit (Fisher). Cells were trypsinized and plated at a density of 5,000 cells/well in 96 well microtiter plates and allowed to attach and recover for 24 hours.
The media was removed by aspiration and replaced with filter sterilized drug (concentration from 10-^4 M to […]) in media. The cells were incubated for 72 hours and then stained using the MTT tetrazolium dye assay of Mosmann^36 except that after the media was removed, the blue formazan product was solubilized in 50 µl/well DMSO.

[2] = biological target: T1, estrogen receptor (Sus scrofa, UniProt Q29040); details: for Ki: [^3H]estradiol 5 nM, 4°C
T1 sequence (Q29040 1-595): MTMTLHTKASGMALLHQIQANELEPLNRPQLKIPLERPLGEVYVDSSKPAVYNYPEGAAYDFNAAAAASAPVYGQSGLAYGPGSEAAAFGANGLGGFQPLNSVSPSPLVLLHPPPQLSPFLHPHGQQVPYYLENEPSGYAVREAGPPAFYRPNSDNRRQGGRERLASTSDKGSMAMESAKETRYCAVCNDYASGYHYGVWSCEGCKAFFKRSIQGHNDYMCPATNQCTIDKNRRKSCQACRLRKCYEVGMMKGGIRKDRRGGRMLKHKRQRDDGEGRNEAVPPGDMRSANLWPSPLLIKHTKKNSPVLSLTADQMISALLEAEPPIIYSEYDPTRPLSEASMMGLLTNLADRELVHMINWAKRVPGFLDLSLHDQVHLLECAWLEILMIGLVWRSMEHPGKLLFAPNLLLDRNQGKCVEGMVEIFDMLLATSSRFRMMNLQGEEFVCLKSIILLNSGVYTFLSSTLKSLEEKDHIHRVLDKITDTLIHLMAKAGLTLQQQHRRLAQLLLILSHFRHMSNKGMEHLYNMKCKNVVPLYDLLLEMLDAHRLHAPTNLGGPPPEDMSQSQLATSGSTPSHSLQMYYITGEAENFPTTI

[3] = biological target: T1, estrogen receptor; test: biochemical
[4] = In vivo biodistribution of N,N-diethyl-[^18F]fluoromethyltamoxifen in rats; details: rat, iv; for tissue uptake at 2 h / tissue uptake at 4 h: primed with 60 μg of estradiol for 3 days
Method: Four groups of rats (150-200 gm, N = 4/group) were anesthetized with ketamine (10-15 mg/rat). […]. Tissue uptake of ^18F-tracer was determined at 2 and 4 hours (h). To ascertain whether the ^18 F-tracer uptake was mediated by a receptor-process, one group of rats was given ^18F-tracer without priming with estradiol; and another group of rats was given unlabeled estradiol (30 µg/rat) together with ^18 F-tracer. […]

[5] = Uterus to muscle ratio (tissue uptake, method not described); details: in vivo
[6] = In vivo tissue uptake of ^131I-IMTX (trans) in rat
[7] = Homo sapiens, MCF7, 72 h, read-out: IC50 Dose (µM)
[8] = Table 6, relative potency, IC50 ratio between tamoxifen and competitor, tamoxifen = 100
[9] = IC50 ratio between tamoxifen and competitor, tamoxifen printed as 1
[10] = IC50(uM), concentration required to decrease bound [^3H]estradiol by 50%, average of three experiments
[11] = IC-50 estrogen receptor binding, [^3H]estradiol (5 nM)
[12] = comparative compounds IV and VII, average of three experiments, read-out: IC50 Dose
[13] = comparative compounds IV and VII, relative potency, tamoxifen = 100
[14] = Homo sapiens, MCF7, 72 h, Table 6, 72 hour exposure, average of three experiments, read-out: IC50 Dose
[15] = Homo sapiens, MCF7, text values b172, read-out: IC50 MCF7 cell inhibition (converted)
[16] = IC50(M), [^3H]estradiol 5 nM, 4°C
[17] = 2h(BLOCK): coinjected with estradiol (30μg)
[18] = 2h, without prime with estradiol (control)

Compound: CCN(CC)CCOc1ccc(/C(=C(\CCCBr)c2ccccc2)c2ccccc2)cc1 [Compound XI (Cis), 1-[4-(2-Diethylaminoethoxy)phenyl]-1,2-diphenyl-5-bromo-1-entene]
IC50 [1, 7]: 0.62 µM
RP [1, 8]: 2355
RBA [2, 9]: 37.5
IC50 [3, 10]: 0.8 µM
IC50 [3, 11]: 0.8 µM

Compound: Fluorotamoxifen [Compound VII (Cis)]
IC50 [1, 12]: 4.5 µM
RP [1, 13]: 224

IC50 [1, 14]: 4.5 µM
IC50 [1, 15]: 4.5 µM
Compound: CCN(CC)CCOc1ccc(/C(=C(\CCCF)c2ccccc2)c2ccccc2)cc1 [VI (Cis), N,N-diethyl-fluoromethyltamoxifen]
RP [1, 8]: 244

IC50 ([1]; Table 6, 72 hour exposure, average of three experiments, read-out: IC50 Dose): 10 µM
RBA [2]: 75
Compound: CCN(CC)CCOc1ccc(/C(=C(/CCCCl)c2ccccc2)c2ccccc2)cc1 [Compound XII (trans), 1[4-(2-Diethylaminoethoxy)phenyl]-1,2-diphenyl-5-chloro-1-pentene]
RP [1, 8]: 146

Compound: CCN(CC)CCOc1ccc(/C(=C(/CCCBr)c2ccccc2)c2ccccc2)cc1 [Compound XI (trans), 1-[4-(2-Diethylaminoethoxy)phenyl]-1,2-diphenyl-5-bromo-1-entene]
IC50 [1, 7]: 4.9 µM
RP [1, 8]: 298
RBA [2, 9]: 150
IC50 [3, 10]: 0.2 µM
IC50 [3, 11]: 0.2 µM

RBA [2]: 7.5
IC50 [3, 10]: 4 µM
IC50 [3, 11]: 4 µM
Compound: CCN(CC)CCOc1ccc(/C(=C(\CCCCl)c2ccccc2)c2ccccc2)cc1 [Compound XII (Cis), 1[4-(2-Diethylaminoethoxy)phenyl]-1,2-diphenyl-5-chloro-1-pentene]
RP [1, 8]: 335

Compound: CCN(CC)CCOc1ccc(/C(=C(/CCCI)c2ccccc2)c2ccccc2)cc1 [X (trans)]
IC50 [1, 14]: 6.3 µM
IC50 [1, 15]: 6.3 µM
RP [1, 8]: 175
RBA [2]: 15
RBA* [2]: 1,500
fold higher affinity for the estrogen receptor than native tamoxifen [2]: 15 fold
Ki [2]: 1 µM
Ki [3]: 1 µM
IC50 [3, 16]: 2 µM
IC50 [3, 10]: 2 µM
IC50 [3, 11]: 2 µM

Compound: CCN(CC)CCOc1ccc(C(=C(CCF)c2ccccc2)c2ccccc2)cc1 (single isomer, unassigned) [Compound IV (Trans), N,N-diethyl-fluorotamoxifen]
RP [1]: 82

Compound: CCN(CC)CCOc1ccc(C(=C(CCF)c2ccccc2)c2ccccc2)cc1 (single isomer, unassigned) [Compound IV (Cis), N,N-diethyl-fluorotamoxifen]
RP [1]: 268

tissue uptake at 2 h ([4]; blood, 2h, read-out: BLOOD): 0.033 ± 0.0059 %ID/g
tissue uptake at 4 h ([4]; blood, read-out: BLOOD): 0.045 ± 0.0003 %ID/g
tissue uptake at 2 h ([4]; bone, 2h, read-out: BONE): 0.653 ± 0.135 %ID/g
tissue uptake at 4 h ([4]; bone, read-out: BONE): 0.802 ± 0.0556 %ID/g
tissue uptake at 2 h ([4]; intestine, 2h, read-out: INTESTINE): 0.917 ± 0.306 %ID/g
tissue uptake at 4 h ([4]; intestine, read-out: INTESTINE): 1.1 ± 0.599 %ID/g
tissue uptake at 2 h ([4]; kidney, 2h, read-out: KIDNEY): 0.742 ± 0.0756 %ID/g
tissue uptake at 4 h ([4]; kidney, read-out: KIDNEY): 0.796 ± 0.03 %ID/g
tissue uptake at 2 h ([4]; liver, 2h, read-out: LIVER): 4.54 ± 0.505 %ID/g
tissue uptake at 4 h ([4]; liver, read-out: LIVER): 4.21 ± 0.44 %ID/g
tissue uptake at 2 h ([4]; muscle, 2h, read-out: MUSCLE): 0.151 ± 0.0203 %ID/g
tissue uptake at 4 h ([4]; muscle, read-out: MUSCLE): 0.183 ± 0.0015 %ID/g
tissue uptake at 2 h ([4]; uterus, 2h, read-out: UTERUS): 0.426 ± 0.0177 %ID/g
tissue uptake at 4 h ([4]; uterus, read-out: UTERUS): 0.4 ± 0.0312 %ID/g
Compound: CCN(CC)CCOc1ccc(C(=C(CCC[18F])c2ccccc2)c2ccccc2)cc1 [N,N-DIETHYL-[^18F]FLUOROMETHYLTAMOXIFEN]
BLOOD [4, 17]: 0.048±0.0066 % OF INJECTED DOSE/GRAM OF TISSUE WEIGHT
BONE [4, 17]: 0.576±0.1268 % OF INJECTED DOSE/GRAM OF TISSUE WEIGHT
INTESTINE [4, 17]: 0.742±0.458 % OF INJECTED DOSE/GRAM OF TISSUE WEIGHT
KIDNEY [4, 17]: 0.742±0.1451 % OF INJECTED DOSE/GRAM OF TISSUE WEIGHT
LIVER [4, 17]: 4.451±1.1559 % OF INJECTED DOSE/GRAM OF TISSUE WEIGHT
MUSCLE [4, 17]: 0.145±0.0446 % OF INJECTED DOSE/GRAM OF TISSUE WEIGHT
UTERUS [4, 17]: 0.297±0.0356 % OF INJECTED DOSE/GRAM OF TISSUE WEIGHT
BLOOD [4, 18]: 0.033±0.0109 % OF INJECTED DOSE/GRAM OF TISSUE WEIGHT
BONE [4, 18]: 0.644±0.0656 % OF INJECTED DOSE/GRAM OF TISSUE WEIGHT
INTESTINE [4, 18]: 0.504±0.1784 % OF INJECTED DOSE/GRAM OF TISSUE WEIGHT
KIDNEY [4, 18]: 0.530±0.0752 % OF INJECTED DOSE/GRAM OF TISSUE WEIGHT
LIVER [4, 18]: 3.849±0.4069 % OF INJECTED DOSE/GRAM OF TISSUE WEIGHT
MUSCLE [4, 18]: 0.109±0.0218 % OF INJECTED DOSE/GRAM OF TISSUE WEIGHT
UTERUS [4, 18]: 0.248±0.0535 % OF INJECTED DOSE/GRAM OF TISSUE WEIGHT

IC50 [1, 14]: 16.7 µM
RBA [2]: 3
RBA* [2]: 300
Ki [3]: 5 µM
IC50 [3, 16]: 10 µM
IC50 [3, 10]: 10 µM
IC50 [3, 11]: 10 µM
Compound: CCN(CC)CCOc1ccc(/C(=C(\CCCO)c2ccccc2)c2ccccc2)cc1 [III (Cis), N,N-diethyl-hydroxymethyltamoxifen]
RP [1, 8]: 66

Compound: CCN(CC)CCOc1ccc(/C(=C(/CCCI)c2ccccc2)c2ccccc2)cc1 [Compound X]
uterus to muscle ratio [5]: 3.6
fold higher affinity for the estrogen receptor than native tamoxifen [2]: 10-15 fold
IC50 [3, 11]: 2 µM

Compound: CCN(CC)CCOc1ccc(C(=C(CCCBr)c2ccccc2)c2ccccc2)cc1 [Compound XI, 1-[4-(2-Diethylaminoethoxy)phenyl]-1,2-diphenyl-5-bromo-1-entene]
IC50 ([3]; IC-50, text value, Example 5): 0.2 µM
IC50 [3, 11]: 0.2 µM

Compound: Fluorotamoxifen [Compound VII (Trans)]
IC50 [1, 12]: 11.8 µM
RP [1, 13]: 93

Compound: CCN(CC)CCOc1ccc(/C(=C(/CCCO)c2ccccc2)c2ccccc2)cc1 [III (trans), N,N-diethyl-hydroxymethyltamoxifen]
IC50 [1, 14]: 22 µM
RP [1, 8]: 50
RBA [2]: 4
RBA* [2]: 400
Ki [3]: 3.5 µM
IC50 [3, 16]: 7 µM
IC50 [3, 10]: 7 µM
IC50 [3, 11]: 7 µM

IC50 [1, 14]: 11.8 µM
IC50 [1, 15]: 11.8 µM
Compound: CCN(CC)CCOc1ccc(/C(=C(/CCCF)c2ccccc2)c2ccccc2)cc1 [Compound VI (trans)]
RP [1, 8]: 93

IC50 [3, 11]: 0.4 µM
Compound: CCN(CC)CCOc1ccc(/C(=C(/CCCCl)c2ccccc2)c2ccccc2)cc1 [Compound XII, 1[4-(2-Diethylaminoethoxy)phenyl]-1,2-diphenyl-5-chloro-1-pentene]

Uterus/blood ratio ([6]; 3h): 1.6
Uterus/blood ratio ([6]; 6h): 1.5
Uterus/blood ratio ([6]; 24h): 1.2
tissue uptake liver ([6]; n=5, 3h): 5.3 ± 0.84 % injected dose per organ
tissue uptake uterus ([6]; n=5, 3h): 0.5 ± 0.04 % injected dose per organ
tissue uptake liver ([6]; n=5, 6h): 3.0 ± 0.02 % injected dose per organ
tissue uptake liver ([6]; n=5, 24h): 1.7 ± 0.21 % injected dose per organ
tissue uptake uterus ([6]; n=5, 24h): 0.01 ± 0.001 % injected dose per organ
Compound: CCN(CC)CCOc1ccc(C(=C(CCC[131I])c2ccccc2)c2ccccc2)cc1 (single isomer, unassigned) [^131 I-IMTX (trans)]

Compound: CCN(CC)CCOc1ccc(/C(=C(\CCCI)c2ccccc2)c2ccccc2)cc1 [X (cis), N,N-diethyl-iodomethyltamoxifen]
IC50 [1, 14]: 2.36 µM
IC50 [1, 15]: 2.4 µM
RP [1, 8]: 466
RBA [2]: 10
RBA* [2]: 1,000
fold higher affinity for the estrogen receptor than native tamoxifen [2]: 10 fold
Ki [2]: 1.5 µM
Ki [3]: 1.5 µM
IC50 [3, 16]: 3 µM
IC50 [3, 10]: 3 µM
IC50 [3, 11]: 3 µM
